By logP is commonly meant the decadic logarithm of the partition coefficient of the neutral form, usually between octanol and water. Low values mean lower lipophilicity, high ones higher lipophilicity. In turn, `COc1ccccc1C=NN=c1ccn(CCc2ccccc2)cc1` returned a logP of 3.4. For `C(=NN=c1ccn(CCCCc2ccccc2)cc1)c1c2ccccc2cc2ccccc12` the value was 4.4; for `C(=NN=c1ccn(Cc2ccc3ccccc3c2)cc1)c1cccc2ccccc12`, 4.4; for `Clc1cccc(Cl)c1Cn1ccc(=NN=Cc2c3ccccc3cc3ccccc23)cc1`, 4.4. The same measure for `Cc1ccc(C=NN=c2ccn(Cc3c(Cl)cccc3Cl)cc2)cc1`: 3.9; for `COc1ccc(C=NN=c2ccn(CCCCc3ccccc3)cc2)cc1`: 3.4. For `Fc1cccc(C=NN=c2ccn(CCCc3ccccc3)cc2)c1` the value was 3.8. For `CCCCCCn1ccc(=NN=Cc2ccc(C)cc2)cc1`, the logP is 3.8. The same measure for `O=C1c2ccccc2C(=O)N1CCCn1ccc(=NN=Cc2ccc3ccccc3c2)cc1`: 4.1. Regarding `O=[N+]([O-])c1ccc(C=NN=c2ccn(Cc3ccccc3)cc2)cc1`, the lipophilicity (logP) turned out to be 3.8. For `Clc1cccc(Cl)c1C=NN=c1ccn(CCc2ccccc2)cc1` the value was 4; for `Brc1ccccc1Cn1ccc(=NN=CCCc2ccccc2)cc1`, 3.9. The same measure for `COc1ccc(C=NN=c2ccn(CCCCCN3C(=O)c4ccccc4C3=O)cc2)cc1`: 3.4; for `C(=NN=c1ccn(CCCc2ccccc2)cc1)c1c2ccccc2cc2ccccc12`: 4.4; for `O=[N+]([O-])c1ccc(C=NN=c2ccn(CCCc3ccccc3)cc2)cc1`: 3.8. For `Clc1ccc(C=NN=c2ccn(CC=Cc3ccccc3)cc2)cc1`, the log partition coefficient (logP) is 3.9. As for `C(CCc1ccccc1)=NN=c1ccn(CCCc2ccccc2)cc1`, the logP was determined as 4. The same measure for `C(=NN=c1ccn(CCc2ccccc2)cc1)c1cccc2ccccc12`: 4.3. The same measure for `Cc1ccccc1C=NN=c1ccn(CCCc2ccccc2)cc1`: 4; for `Brc1ccc(C=NN=c2ccn(CCCCc3ccccc3)cc2)cc1`: 3.9. The same measure for `Brc1ccc(C=NN=c2ccn(CCCc3ccccc3)cc2)cc1`: 3.9; for `COc1ccc(C=NN=c2ccn(CCCCCc3ccccc3)cc2)cc1`: 3.5. With `COc1ccccc1C=NN=c1ccn(Cc2ccccc2)cc1`, the log partition coefficient (logP) was 3.3. The same measure for `C(Cc1ccccc1)=NN=c1ccn(CCCc2ccccc2)cc1`: 3.9; for `O=[N+]([O-])c1ccc(C=NN=c2ccn(Cc3c(Cl)cccc3Cl)cc2)cc1`: 4; for `C(=NN=c1ccn(Cc2ccccc2)cc1)c1c2ccccc2cc2ccccc12`: 4.3. The same measure for `Cc1cccc(C)c1C=NN=c1ccn(CCCCc2ccccc2)cc1`: 3.3.

`Oc1ccccc1C=NN=c1ccn(Cc2c(Cl)cccc2Cl)cc1`: the logP amounted to 3.3. The same measure for `Cc1cccc(C)c1C=NN=c1ccn(CCc2ccccc2)cc1`: 3.3. For the compound `Fc1ccc(Br)cc1Cn1ccc(=NN=Cc2ccc(Cl)cc2)cc1`, the lipophilicity (logP) amounted to 4.

The compound `Clc1ccccc1C=NN=c1ccn(CCc2ccccc2)cc1` had a logP of 3.9. The same measure for `O=[N+]([O-])c1ccc(C=NN=c2ccn(CCc3ccccc3)cc2)cc1`: 3.9; for `Cc1ccc(C=NN=c2ccn(CCCCc3ccccc3)cc2)cc1`: 4; for `Clc1cccc(Cl)c1C=NN=c1ccn(CCCCCc2ccccc2)cc1`: 4. In turn, `C(=NN=c1ccn(CCCCCc2ccccc2)cc1)c1c2ccccc2cc2ccccc12` came in with a lipophilicity (logP) of 4.4. For `Cc1cccc(C)c1C=NN=c1ccn(Cc2c(Cl)cccc2Cl)cc1` the value was 3.3. Consider `Clc1ccc(C=NN=c2ccn(Cc3ccccc3I)cc2)cc1`, for which the logP stood at 3.9. For `Cc1ccc(C=NN=c2ccn(CCCCCc3ccccc3)cc2)cc1` the value was 4.1. The same measure for `Clc1ccc(C=NN=c2ccn(CCCc3ccccc3)cc2)cc1`: 3.9; for `COc1cccc(OC)c1C=NN=c1ccn(CCc2ccccc2)cc1`: 3.4; for `COc1ccc(C=NN=c2ccn(CC=Cc3ccccc3)cc2)cc1`: 3.4. For `Cc1ccc(C=NN=c2ccn(CCc3ccccc3)cc2)cc1` the value was 4; for `COc1ccc(C=NN=c2ccn(Cc3ccccc3)cc2)cc1`, 3.3.

Consider `Clc1ccccc1C=NN=c1ccn(Cc2ccccc2)cc1`, for which the logP turned out to be 3.8.

In turn, `C(=NN=c1ccn(CCCc2ccccc2)cc1)c1ccc2ccccc2c1` gave a log partition coefficient (logP) of 4.3. For `COc1ccccc1C=NN=c1ccn(Cc2ccc3ccccc3c2)cc1`, the logP was determined as 3.4. For `Cc1ccc(C=NN=c2ccn(CCCN3C(=O)c4ccccc4C3=O)cc2)cc1` the value was 3.6; for `COc1ccc(C=NN=c2ccn(CCc3ccccc3)cc2)cc1`, 3.4.

The compound `COc1ccccc1C=NN=c1ccn(CCCc2ccccc2)cc1` registered a logP of 3.4. For `Clc1cccc(Cl)c1Cn1ccc(=NN=Cc2ccc(Br)cc2)cc1` the value was 3.9; for `Fc1ccc(C=NN=c2ccn(Cc3ccccc3)cc2)cc1`, 3.7; for `Cc1cccc(C)c1C=NN=c1ccn(Cc2ccccc2)cc1`, 4. The same measure for `Clc1cccc(Cl)c1Cn1ccc(=NN=Cc2cccc3ccccc23)cc1`: 4.3; for `Cc1cccc(C=NN=c2ccn(CCCN3C(=O)c4ccccc4C3=O)cc2)c1`: 3.8; for `Clc1cccc(Cl)c1C=NN=c1ccn(Cc2ccccc2)cc1`: 3.9. The same measure for `Fc1cc(Br)ccc1Cn1ccc(=NN=CCCc2ccccc2)cc1`: 3.9. In turn, `Cc1cccc(C)c1C=NN=c1ccn(CCCc2ccccc2)cc1` gave a logP of 3.3.

The compound `COc1cccc(OC)c1C=NN=c1ccn(-c2c(Cl)cccc2Cl)cc1` yielded a logP of 3.4. In the case of `COc1ccccc1C=NN=c1ccn(CC=Cc2ccccc2)cc1`, the lipophilicity (logP) came out at 3.5. The same measure for `O=[N+]([O-])c1ccc(C=NN=c2ccn(CCCCc3ccccc3)cc2)cc1`: 3.9; for `C(=NN=c1ccn(CCCCc2ccccc2)cc1)c1cccc2ccccc12`: 4.3; for `Brc1ccc(C=NN=c2ccn(Cc3ccccc3)cc2)cc1`: 3.9. For `Cc1ccccc1C=NN=c1ccn(Cc2ccccc2)cc1` the value was 3.9; for `C(CCc1ccccc1)=NN=c1ccn(Cc2ccccc2)cc1`, 4.

With `COc1cccc(OC)c1C=NN=c1ccn(CCCc2ccccc2)cc1`, the logP came out at 3.4.

`Cc1ccc(C=NN=c2ccn(CCCc3ccccc3)cc2)cc1` had a lipophilicity (logP) of 4. The same measure for `Clc1ccccc1C=NN=c1ccn(Cc2c(Cl)cccc2Cl)cc1`: 3.9; for `C(=NN=c1ccn(CCCCCc2ccccc2)cc1)c1cccc2ccccc12`: 4.4. The same measure for `Cc1cccc(C=NN=c2ccn(CCCc3ccccc3)cc2)c1`: 4. For `Brc1ccc(C=NN=c2ccn(CCCCCc3ccccc3)cc2)cc1` the value was 4. Compound `Fc1cccc(C=NN=c2ccn(Cc3ccccc3)cc2)c1` showed a logP of 3.7. Take `Fc1ccc(C=NN=c2ccn(CCCc3ccccc3)cc2)cc1`: the log partition coefficient (logP) was 3.8. The same measure for `Fc1ccc(Cn2ccc(=NN=Cc3ccc(Cl)cc3)cc2)cc1`: 3.8; for `C(Cc1ccccc1)=NN=c1ccn(Cc2ccccc2)cc1`: 3.9. For `Clc1ccc(C=NN=c2ccn(Cc3ccccc3)cc2)cc1` the value was 3.8; for `Cc1cccc(Cn2ccc(=NN=CCCc3ccccc3)cc2)c1C`, 3.9; for `Oc1ccccc1C=NN=c1ccn(CCCc2ccccc2)cc1`, 3.3. Compound `COc1cccc(OC)c1C=NN=c1ccn(CCCCCc2ccccc2)cc1` registered a lipophilicity (logP) of 3.5. For `Oc1ccccc1C=NN=c1ccn(CCc2ccccc2)cc1` the value was 3.3; for `Cc1ccc(C=NN=c2ccn(Cc3ccccc3)cc2)cc1`, 3.9. The same measure for `COc1ccc(C=NN=c2ccn(Cc3c(Cl)cccc3Cl)cc2)cc1`: 3.4; for `C(=NN=c1ccn(CCCc2ccccc2)cc1)c1cccc2ccccc12`: 4.3. For `COc1ccc(C=NN=c2ccn(CCCc3ccccc3)cc2)cc1` the value was 3.4; for `O=[N+]([O-])c1ccc(C=NN=c2ccn(CC=Cc3ccccc3)cc2)cc1`, 3.8. The compound `Oc1ccccc1C=NN=c1ccn(Cc2ccccc2)cc1` showed a log partition coefficient (logP) of 3.2.

On to `Clc1cccc(Cl)c1C=NN=c1ccn(CCCCc2ccccc2)cc1`, for which the logP was 4. For `Cc1cccc(C)c1C=NN=c1ccn(CCCCCc2ccccc2)cc1` the value was 3.4; for `Cc1ccc(C=NN=c2ccn(Cc3ccc4ccccc4c3)cc2)cc1`, 4. With `Clc1cccc(Cl)c1C=NN=c1ccn(Cc2c(Cl)cccc2Cl)cc1`, the logP was 4.

On to `Fc1cccc(C=NN=c2ccn(Cc3ccccc3Br)cc2)c1`, for which the log partition coefficient (logP) was 3.9. In turn, `COc1cccc(OC)c1C=NN=c1ccn(Cc2ccccc2)cc1` yielded a logP of 3.3. For `Cc1ccc(C=NN=c2ccn(CC=Cc3ccccc3)cc2)cc1` the value was 4; for `COc1cccc(OC)c1C=NN=c1ccn(CCCCc2ccccc2)cc1`, 3.4. The same measure for `COc1ccccc1C=NN=c1ccn(Cc2c(Cl)cccc2Cl)cc1`: 3.4; for `C(=NN=c1ccn(Cc2ccccc2)cc1)c1cccc2ccccc12`: 4.2; for `Cc1ccccc1C=NN=c1ccn(Cc2c(Cl)cccc2Cl)cc1`: 3.9.

`C(=NN=c1ccn(CCc2ccccc2)cc1)c1c2ccccc2cc2ccccc12` yielded a logP of 4.4. For `Fc1ccc(Cn2ccc(=NN=CCCc3ccccc3)cc2)cc1` the value was 3.9; for `O=[N+]([O-])c1ccc(C=NN=c2ccn(CCCCCc3ccccc3)cc2)cc1`, 4; for `C(=NN=c1ccn(Cc2ccccc2)cc1)c1ccc2ccccc2c1`, 4.2.

Turning to `Cc1ccc(C)c(-n2ccc(=NN=Cc3ccc(Cl)cc3)cc2)c1`, the logP was 4. In turn, `Clc1ccc(C=NN=c2ccn(Cc3ccccc3Br)cc2)cc1` registered a lipophilicity (logP) of 3.9. In turn, `Clc1ccccc1C=NN=c1ccn(CCCc2ccccc2)cc1` registered a logP of 3.9.
